≈ marks a conversion by molar mass, not a printed value. Read-outs that look alike come from different tables or passages of the source.

The record followed here is patent publication US11655207B2, “Pharmaceutically acceptable salt of alkylcarbamoyl naphthalenyloxy octenoylhydroxy amide or of derivative thereof and method for preparing same” (CRYSTALGENOMICS, INC., priority 2017, dated 2023).

A short description of data set [1]: Change in appearance of the salts at room temperature for 24 hours. Type of data set: physicochemical. The following applies: for Initial appearance: dried material; for Appearance (stored at R.T. for 24 hrs) / change in appearance (text summary of Table 4): room temperature, 24 hours. The procedure:
In the case of the suspension and the gel, firstly it was vacuum dried under reduced pressure and secondly vacuum dried for 24 to 48 hours.

Data set [2] can be described thus: Stability evaluation: change in moisture content. Type of data set: physicochemical. Particulars: open state, room temperature (20 to 25° C., 50% or less), 3 days vs initial; FIG. 2. The method, then: In order to evaluate the change in moisture content, the compounds according to Examples and Comparative Examples were stored in an open state at room temperature (20 to 25° C., 50% or less), and the change was measured by the difference between the initial moisture content and the moisture content after 3 days.

Data set [3] in a line: Stability evaluation: change in appearance under storage conditions. The class given is physicochemical. From the text: In order to evaluate the change in appearance of the compounds according to Comparative Examples and Examples, it was observed after storing each compound in accordance with the conditions shown in Table 6 below.
Data set [4] is described as follows: Stability evaluation: change in the amount of related substances. The class given is physicochemical. The following applies: for change (increase) in the amount of related substances: open state, room temperature, 3 days, FIG. 3.
Data set [5] in a line: Solubility of the compound of formula (1) in organic solvents (HPLC). Type of data set: physicochemical.
The mark [6] stands for this setting: 1 day, Acceleration (40±2° C. and 75±5% RH).
The mark [7] stands for this setting: 1 day, Long-term (25±2° C. and 60±5% RH).
The mark [8] stands for this setting: 1 day, Room temperature (20 to 25° C., 50% or less).

On to `CC(=O)O` [Acetic acid], for which, in data set [1], the Initial appearance result was “Foam” and the “Appearance (stored at R.T. for 24 hrs)” value is given as “Gel-like”.

Regarding `O=S(=O)(O)c1ccccc1` [Benzensulfonic acid], in data set [1], the Initial appearance entry is reported as “Foam” and the “Appearance (stored at R.T. for 24 hrs)” value is “Gel-like”.

On to `O=C(O)c1ccccc1` [Benzoic acid], for which, in data set [1], the Initial appearance result is reported as “Foam” and the “Appearance (stored at R.T. for 24 hrs)” value is given as “Gel-like”.

Consider `O=C(O)CC(O)(CC(=O)O)C(=O)O` [Citric acid], for which, in data set [1], the Initial appearance result was “Foam” and the “Appearance (stored at R.T. for 24 hrs)” value is “Gel-like”.

What is called Solubility is how much of the substance goes into solution per volume. On to `CN(C)CCCNC(=O)/C(=C/CCCCC(=O)NO)COc1cccc2ccccc12` [Comparative Example 1, alkylcarbamoyl naphthalenyloxy octenoyl hydroxyamide], for which the Initial appearance result in data set [1] is on record as “Foam”. In addition, the “Appearance (stored at R.T. for 24 hrs)” value in data set [1] is “Gel-like”. Also, the “increase in moisture content” value in data set [2] is on record as “about 3%”. In addition, the Appearance result is recorded as “Gel-like” in data set [3] (setting [6]); “Gel-like” in data set [3] (setting [7]); “Gel-like” in data set [3] (setting [8]); “Gel-like” in data set [3] (1 day, Severe (60±2° C.)); “Foam” in data set [3] (Initial value). Also, in data set [3] (storage conditions of Table 6), the “change in appearance (Table 6)” value is “changed from initial foam such as a sponge to a highly viscous liquid or gel structure”. For the same compound, the “change (increase) in the amount of related substances” value in data set [4] is recorded as “about 10%”. Besides, the Solubility is 72.3 mg/mL (≈ 169 mM) in data set [5] (1,4-dioxane, 20° C.); 72.3 mg/mL (≈ 169 mM) in data set [5] (1,4-dioxane, 50° C.); greater than 58.8 mg/mL in data set [5] (1-butanol, 20° C.); 73.8 mg/mL (≈ 173 mM) in data set [5] (2-propanol, 20° C.); 77.3 mg/mL (≈ 181 mM) in data set [5] (2-propanol, 50° C.); 43.3 mg/mL (≈ 101 mM) in data set [5] (Acetone, 20° C.). In addition, the Solubility is 43.7 mg/mL (≈ 102 mM) in data set [5] (Acetone, 50° C.); 6.1 mg/mL (≈ 14.3 mM) in data set [5] (Acetonitrile, 20° C.); 16.5 mg/mL (≈ 38.6 mM) in data set [5] (Acetonitrile, 50° C.); 39.6 mg/mL (≈ 92.6 mM) in data set [5] (Butan-2-ol, 20° C.); 72.0 mg/mL (≈ 168 mM) in data set [5] (Butan-2-ol, 50° C.); greater than 80.7 mg/mL in data set [5] (Chloroform, 20° C.). Also, the Solubility in data set [5] (Dimethyl sulfoxide, 20° C.) is greater than 70.6 mg/mL; in data set [5] (Ethanol, 20° C.), greater than 77.4 mg/mL; in data set [5] (Ethyl acetate, 20° C.), 4.6 mg/mL (≈ 10.8 mM); in data set [5] (Ethyl acetate, 50° C.) it was 20.3 mg/mL (≈ 47.5 mM); in data set [5] (Methanol, 20° C.), greater than 68.4 mg/mL; in data set [5] (Methylene Ketone, 20° C.), 66.6 mg/mL (≈ 156 mM). The Solubility is 69.7 mg/mL (≈ 163 mM) in data set [5] (Methylene Ketone, 50° C.); greater than 76.6 mg/mL in data set [5] (N,N-dimethylformamide, 20° C.); greater than 70.3 mg/mL in data set [5] (Propanol, 20° C.); 0.8 mg/mL (≈ 1.87 mM) in data set [5] (Tert-butylmethyl ether, 20° C.); 0.8 mg/mL (≈ 1.87 mM) in data set [5] (Tert-butylmethyl ether, 50° C.); greater than 74.0 mg/mL in data set [5] (Tetrahydrofuran, 20° C.). In addition, the Solubility in data set [5] (Toluene, 20° C.) was determined as 1.0 mg/mL (≈ 2.34 mM); in data set [5] (Toluene, 50° C.), 3.3 mg/mL (≈ 7.72 mM).

As for `CCS(=O)(=O)O` [Ethanesulfonic acid], in data set [1], the Initial appearance result is “Foam” and the “Appearance (stored at R.T. for 24 hrs)” value is listed as “Gel-like”.

For the compound `CN(C)CCCNC(=O)/C(=C/CCCCC(=O)NO)COc1cccc2ccccc12.O=C(O)C(O)C(O)C(=O)O` [Example 1, Alkylcarbamoyl Naphthalenyloxy Octenoyl Hydroxyamide Tartaric Acid Salt], the Content is, setting by setting: (bottle package, 1 day, Acceleration (40±2° C. and 75±5% RH)) 89.1; (bottle package, 1 day, Long-term (25±2° C. and 60±5% RH)) 99.1; (bottle package, 3 days, Acceleration (40±2° C. and 75±5% RH)) 84.0; (bottle package, 3 days, Long-term (25±2° C. and 60±5% RH)) 84.1; (bottle package, 7 days, Acceleration (40±2° C. and 75±5% RH)) 78.5; (bottle package, 7 days, Long-term (25±2° C. and 60±5% RH)) 78.5. The compound also returned a Content (open state, 1 day, Acceleration (40±2° C. and 75±5% RH)) of 92.3; a Content (open state, 3 days, Severe (60±2° C.)) of 97.2; a Content (open state, 7 days, Room temperature) of 100.1; a Content (open state, 7 days, Severe (60±2° C.)) of 89.1; a Content (open state, Initial value) of 98.9; a Content (polyethylene bottle package (added silica gel), Initial value) of 98.9. Further, the “change in content (text summary of Tables 7 and 8)” value (open state and bottle package, all storage conditions) is reported as “maintained constant at room temperature regardless of the packaging state”. In data set [1], the Initial appearance entry is “Powder”. Besides, the “Appearance (stored at R.T. for 24 hrs)” value in data set [1] was “Powder”. The “change in appearance (text summary of Table 4)” value in data set [1] is given as “no change in appearance was observed”. The “increase in moisture content” value in data set [2] stood at 2%. The Appearance entry in data set [3] (setting [6]) is “Gel-like”; in data set [3] (setting [7]), “Gel-like”; in data set [3] (setting [8]), “Powder”; in data set [3] (1 day, Severe (60±2° C.)), “Powder”; in data set [3] (Initial value), “Powder”. Further, the “amount of formation of the related substances” value in data set [4] (according to temperature and storage period, FIGS. 4 and 5) was “maintained in a certain range at a relatively low temperature”. Also, in data set [4], the “change (increase) in the amount of related substances” value was 0.05%.

With `O=C(O)/C=C/C(=O)O` [Fumaric acid], in data set [1], the Initial appearance result is listed as “Powder” and the “Appearance (stored at R.T. for 24 hrs)” value was “Gel-like”.

For `CN(C)CCCNC(=O)/C(=C/CCCCC(=O)NO)COc1cccc2ccccc12.O=C(O)[C@H](O)[C@@H](O)[C@H](O)[C@H](O)CO` [Gluconic acid, (D−)], in data set [1], the Initial appearance entry is recorded as “Powder” and the “Appearance (stored at R.T. for 24 hrs)” value was “Gel-like”.

For `O=C(O)CCCC(=O)O` [Glutaric acid], in data set [1], the Initial appearance result was “Powder” and the “Appearance (stored at R.T. for 24 hrs)” value is “Gel-like”.

As for `O=C(O)CNC(=O)c1ccccc1` [Hippuric acid], in data set [1], the Initial appearance entry is on record as “Foam” and the “Appearance (stored at R.T. for 24 hrs)” value was “Gel-like”.

Take `Cl` [Hydrochloric acid]: in data set [1], the Initial appearance result is on record as “Gel-like” and the “Appearance (stored at R.T. for 24 hrs)” value was “Gel-like”.

For the compound `O=C(O)/C=C\C(=O)O` [Maleic acid], in data set [1], the Initial appearance result is listed as “Foam” and the “Appearance (stored at R.T. for 24 hrs)” value is listed as “Gel-1ike”.

As to `O=C(O)CC(=O)O` [Malonic acid], in data set [1], the Initial appearance result is “Foam” and the “Appearance (stored at R.T. for 24 hrs)” value is “Gel-like”.

As to `CN(C)CCCNC(=O)/C(=C/CCCCC(=O)NO)COc1cccc2ccccc12.CS(=O)(=O)O` [Methanensulfonic acid], in data set [1], the Initial appearance entry is recorded as “Foam” and the “Appearance (stored at R.T. for 24 hrs)” value was “Gel-like”.

For the compound `O=S(=O)(O)c1ccc2ccccc2c1` [Naphthalene-2-sulfonic acid], in data set [1], the Initial appearance result was “Powder” and the “Appearance (stored at R.T. for 24 hrs)” value is “Gel-like”.

In the case of `O=C(O)c1ccc2ccccc2c1O` [Naphthoic acid, 1-hydroxy-2], in data set [1], the Initial appearance entry is reported as “Powder” and the “Appearance (stored at R.T. for 24 hrs)” value was “Gel-like”.

For `CCCCCCCCCCCCCCCCCC(=O)O` [Stearic acid], in data set [1], the Initial appearance entry was “Powder”, the “Appearance (stored at R.T. for 24 hrs)” value was “Powder” and the “change in appearance (text summary of Table 4)” value is “no change in appearance was observed”.

For the compound `O=C(O)CCC(=O)O` [Succinic acid], in data set [1], the Initial appearance entry is “Powder” and the “Appearance (stored at R.T. for 24 hrs)” value is on record as “Gel-like”.

`O=S(=O)(O)O` [Sulfuric acid]: in data set [1], the Initial appearance entry is recorded as “Gel-like” and the “Appearance (stored at R.T. for 24 hrs)” value is given as “Gel-like”.

Take `CN(C)CCCNC(=O)/C(=C/CCCCC(=O)NO)COc1cccc2ccccc12.Cc1ccc(S(=O)(=O)O)cc1` [Toluensulfonic acid, para]: in data set [1], the Initial appearance entry was “Foam” and the “Appearance (stored at R.T. for 24 hrs)” value is reported as “Gel-like”.

`CN(C)CCCNC(=O)/C(=C/CCCCC(=O)NO)COc1cccc2ccccc12.O=C(O)C(F)(F)F` [Trifluoracetic acid]: in data set [1], the Initial appearance entry is listed as “Ge-1ike” and the “Appearance (stored at R.T. for 24 hrs)” value is reported as “Gel-like”.
